The values below come from patent US9532957B2, “Method of stabilizing reduced coenzyme Q10” (Kaneka Corporation, priority 2001, dated 2017).

Data set [1] can be described thus: Preliminary investigations on stabilization of reduced coenzyme Q10. The data set is classed as physicochemical.
Data set [2] is described as follows: Oxidation stability of reduced coenzyme Q10 ethanol solution with L-ascorbic acid, stirred in air at 50° C. The data set is classed as physicochemical. Conditions: 1 part L-ascorbic acid per 100 parts solvent, after 50 hours. On the procedure: In the examples, purity of reduced coenzyme Q10 and the weight ratio of reduced coenzyme Q10/oxidized coenzyme Q10 were determined by the HFLC analysis specified below. The reduced coenzyme Q10 purity values as determined, however, are by no means indicative of the limit purity value attainable in accordance with the present invention. Likewise, the ratio of the reduced coenzyme Q10 in the weight ratio of reduced coenzyme Q10/oxidized coenzyme Q10 values obtained never indicates the upper limit to that ratio.
Column; SYMMETRY C18 (product of Waters), 250 mm (in length), 4.6 mm (in inside diameter): mobile phase; C2H5OH/CH3OH=4/3 (v/v); detection wavelength; 210 nm; flow rate; 1 ml/min: retention time of reduced coenzyme Q10; 9.1 min: retention time of oxidized coenzyme Q10; 13.3 min.
Using the reduced coenzyme Q10 crystal obtained in Example 1, an ethanol solution containing 5 parts by weight of reduced coenzyme Q10 relative to 100 parts by weight of ethanol was prepared. To this ethanol solution, L-ascorbic acid was added so that 1 part by weight of L-ascorbic acid was contained relative to 100 parts by weight of the solvent (20 parts by weight relative to 100 parts by weight of reduced coenzyme Q10), and the solution was stirred in air at 50° C. […]

Take `O=C1O[C@H]([C@@H](O)CO)C(O)=C1O` [vitamin C]: the “stabilization effect on reduced coenzyme Q10” value in data set [1] (preliminary investigations) is recorded as “has a stabilization effect”; in data set [1] (used in combination with polyhydric alcohols having 3 or more OH, such as glycerine) it was “very poor”.
Regarding Vitamin E [reference compound], the “stabilization effect on reduced coenzyme Q10” value in data set [1] (preliminary investigations) is recorded as “does not have the effect”.
Turning to `O=C1O[C@H]([C@@H](O)CO)C(O)=C1O` [L-ascorbic acid], the “X: The residual ratio of ascorbic acid” value in data set [2] was determined as 85.2%.
